Columns and labels:
[1] = system: Sephadex A-25 induced pneumonitis in Wistar rats; assay: Sephadex-induced (6-day) pneumonitis in rats; type: in vivo, rat
Experimental: The Model of Sephadex-Induced (6-Day) Pneumonitis in Rats
Male Wistar rats weighing 270-300 g were used in the tests.
Inflammation in the lungs was induced by a single inhalation of sephadex A-25 (hydrophilic powder with particle sizes from 20 to 80 μm) at dose 5 mg/kg using a dosing device which is a laboratory analog of the inhaler “Cyclohaler” (the Scientific-Research Institute for Pulmonology of the RF).
Sephadex A-25 at dose 5 mg per 1 kg body weight was administered to rats under ester anesthesia using an original dosing device for inhalation administering dry powders. Following administration of Sephadex A-25, Wistar rats rapidly recovered form anesthesia, and no peculiarities in their behavior and respiration character were noted. The substances in the form of a dry powder were administered by inhalation at dose 500 μg/kg 1 hour post Sephadex administration, then for 5 days in succession once daily at one and the same morning hours. The control was represented by two groups: a group of intact animals, and a group of rats administered once with Sephadex by inhalation.
The results of therapeutic action of pharmacological substances on pneumonitis development were assessed using morphological and morphometric parameters (volume density and alveolitis) 6 days post aerosol Sephadex administration.
Histological examinations of the lungs stained by hematoxyline and eosine.
4-5 μm thick histological lung slices were prepared wherein neutrophil number was calculated as well as volume density of alveolitis and emphysema was assessed using the Avtandilov's mesh [Avtandilov G. G., Vvedeniye v kolichestvennuyu pathologicheskuyu morphologiyu.//Moscow. “Meditsina” publishers. 1980. p. 203]. Morphometric examination of pulmonary lymphoid tissue was also carried out. To this end, micro preparations of the lungs were fixed according to the method of Beinenstock et al [Bienenstock J., Johnson N., Perey D. Y. E. Bronchial lymphoid tissue 1. Morphologic characteristics//Lab. Invest. 1973. v. 28 p. 693-698.] […] Volume density of alveolitis and emphysema was determined using the point calculation method.
Broncho-alveolar wash-off was obtained in rats and guinea pigs under hexenal anesthesia by double washing the lungs through the trachea with 10 ml normal saline. Viability of cells was determined in the test with tryptane blue. Absolute number of cells in 1 ml (cytosis) was determined in the broncho-alveolar wash-off liquid (BAW) using the Goryaev's chamber. In the smears of the BAW liquid precipitate obtained using centrifugation at 200 g for 10 minutes and then stained according to Romanovskcy-Gimza, endopulmonary cytogram was calculated (in percent) [Avtsyn A. P., Lukomskij G. I., Romanova L. K. et al. Endopul'monal'naya cytogramma.//Sov. […]

[2] = system: hypercholesterolemia in Wistar rats; assay: Model of hypercholesterolemia in rats (oral cholesterol loading); type: in vivo, rat
Experimental: The study was carried out on male Wistar rats weighing 200±20 g. Hyperlipidemia was induced by oral administration of cholesterol loading, oily cholesterol suspension:
olive oil (Acorsa, Spain)—5 ml/kg weigh of animals;
cholesterol (Sigma, USA)—1 g/kg weight;
sodium cholate (Sigma, USA)—100 mg/kg weight.
As a reference preparation, the preparation from the group of statines “Mevacor” (Lovastatine) manufactured by the firm Merck Sharp & Dohn was used at dose 40 mg/kg. Cholesterol suspension was administered daily in the morning for 10 days. The compounds tested (at dose 500 μg/kg) and the reference preparation (at dose 40 mg/kg) were administered to the animals togester with cholesterol suspension for 10 days. All the animals received a standard briquetted forage.
The animals were divided into the following groups:
“Control”—intact animals (n=5);
“Cholesterol”—rats that orally received cholesterol loading (n=10);
“Lovastatine”—rats that orally received cholesterol loading and Lovastatine (n=10);
“Compound IV”—rats that orally received cholesterol loading and the tested compound IV (n=10).
Blood was sampled at days 5, 8 and 10 of the experiment.
Statistical processing of the hypolipidemic action data of the tested substances was carried out with regard to the “Cholesterol” group (Table 13).
Experimental groups included:
1) “Cholesterol”—rats orally administered with oily cholesterol suspension for 10 days;
2) “Compound IV”—rats orally administered with oily cholesterol suspension and the tested compound N;
3) “Compound IV—1Na”—rats orally administered with oily cholesterol suspension and the tested mono-sodium salt of compound N;
4) “Compound IV—2Na”—rats orally administered with oily cholesterol suspension and the tested di-sodium salt of compound N;
5) “Compound V—1Na”—rats orally administered with oily cholesterol suspension and the tested mono-sodium salt of the compound V;
6) “Compound III—1Na”—rats orally administered with oily cholesterol suspension and the tested mono-sodium salt of the compound III;
7) “Compound II—1Na”—rats orally administered with oily cholesterol suspension and the tested mono-sodium salt of the compound II;
8) “Sim”—rats orally administered with oily cholesterol suspension and Simvastatine;
9) control—intact rats before beginning the test.
At day 10 of the test blood samples were taken following decapitation of the animals. The animals fasted for 12 hours prior to decapitation.
Blood serum total cholesterol, triglycerides and high density lipoprotein cholesterol (HDLC) were measured. Low and very low density lipoprotein cholesterol was calculated by the difference between total cholesterol and HDL cholesterol.
Blood serum total cholesterol and triglycerides were determined using the enzymatic methods.
Cholesterol level in high density lipoproteins (α-LP) was determined using the precipitation method of LDL and VLDL with phosphotungstic acid and magnesium ions.
Data in the tables are presented as a mean value±standard error. Significance of differences between the groups “cholesterol” and “preparation.” was assessed by the two-sampled Student's t-test.

[3] = day 5 of the experiment (Table 15)
[4] = day 8 of the experiment (Table 16)
[5] = day 10 of the experiment (Table 17)
[6] = dose 500 μg/kg, vs Cholesterol group
[7] = oral 10 days with cholesterol loading, tested compound 500 μg/kg, reference 40 mg/kg (Table 13)

O=C(O)CCCC(=O)N[C@@H](Cc1c[nH]cn1)C(=O)O [Compound IV, N^α-glutaryl-L-histidine]
emphysema (histological examination of the lungs) ([1]; 500 μg/kg by inhalation): not practically detected | infiltration of interalveolar septa with neutrophils ([1]; 500 μg/kg by inhalation): not noted | prevalence of alveolitis (histological examination of the lungs) ([1]; compared to the model group, 500 μg/kg by inhalation): significantly lower | Absolute number of Macrophags in 1 μl BAW ([1]; dry powder by inhalation 500 μg/kg): 152.4 ± 18.5 cells in 1 μl BAW | Total cholesterol, HDL [2, 3]: 35.8 ± 1.2 mg/100 ml | Total cholesterol, LDL + VLDL [2, 3]: 48.5 ± 4.5 mg/100 ml | Triglycerides, Serum [2, 3]: 120.6 ± 8.9 mg/100 ml | Total cholesterol, Serum ([2]; day 5 of the experiment (Table 15), oral with oily cholesterol suspension): 84.2 ± 3.9 mg/100 ml | Total cholesterol, HDL [2, 4]: 35.9 ± 1.2 mg/100 ml | Total cholesterol, LDL + VLDL [2, 4]: 67.3 ± 8.7 mg/100 ml | Total cholesterol, Serum [2, 4]: 103.3 ± 8.1 mg/100 ml | Triglycerides, Serum [2, 4]: 154.2 ± 11.4 mg/100 ml | Total cholesterol, HDL [2, 5]: 36.5 ± 0.9 mg/100 ml | Total cholesterol, LDL + VLDL [2, 5]: 58.7 ± 5.3 mg/100 ml | Total cholesterol, Serum [2, 5]: 95.2 ± 5.4 mg/100 ml | Triglycerides, Serum [2, 5]: 143.3 ± 8.9 mg/100 ml | lowering LDL cholesterol [2, 6]: 29.8% | lowering hepatic cholesterol [2, 6]: 22.7% | lowering hepatic triglycerides [2, 6]: 19% | lowering serum total cholesterol [2, 6]: 19.5% | Total cholesterol, CHDL [2, 7]: 50.5 ± 1.3 mg/100 ml | Total cholesterol, CLLD + CLVLD [2, 7]: 46.1 ± 0.9 mg/100 ml | Total cholesterol, Liver [2, 7]: 2.78 ± 0.28 mg/g of tissue | Total cholesterol, Serum [2, 7]: 96.6 ± 5.7 mg/100 ml | Triglycerids, Liver [2, 7]: 5.53 ± 0.19 mg/g of tissue | Triglycerids, Serum [2, 7]: 95.1 ± 7.9 mg/100 ml

— patent US8318950B2, “N-acyl amino acid derivatives, a method for the preparation thereof, a pharmaceutical composition and use thereof as anti-allergic, anti-inflammatory and hypolipidemic agents” (Otkrytoe Aktsionernoe Obschestvo-Otechestvennye Lekarstva, priority 2005, dated 2012)
